{"source": "patent US20070065428A1", "about": "“Early B-cell detection for selecting vaccines” (Pepscan Systems B.V., priority 2004, published 2007)", "key": {"GnRH-specific B cells [1]": {"tested_on": "GnRH-specific B cells", "test": "Staining of specific B cells with tetramers made from C-term, N-term or middle biotinylated GnRH", "format": "cell-based, mice", "conditions": "middle- or C-terminally biotinylated GnRH (FIG. 3B)", "protocol": "FIG. 3B: Specific B cells are recognized only by C-term tetramer. Peptide-tetrameric molecules made with different biotinylated GnRH: C-term, N-term, and middle biotinylated peptides.\nTetrameric molecules were produced by mixing equal volumes of C-biotinylated, middle biotinylated or N-biotinylated GnRH at 200 μM (Pepscan Systems) with R-phycoerythrin (PE)-labeled neutravidin at 3.3 μM (PE-NA, Molecular Probes, Eugene, Oreg.), or allophycocyanin (APC)-labeled streptavidin at 6.1 μM (APC-SA, Molecular Probes). Each mixture was incubated at 4° C. for at least 12 hours. Then, tetramers were separated from non-complexed peptide by gel filtration using Bio-Gel P-30 spin columns (Bio-Rad, Hercules, Calif.).\nAs a further specificity test, we produced tetramers using peptides that were N-, middle-, or C-terminally labeled."}, "hCG-specific B cells": {"tested_on": "hCG-specific B cells", "test": "Double-tetramer (PE/APC hCG-tetramer) flow cytometry of rat lymphocytes after immunization with CTP-hCG", "format": "in vivo", "conditions": "rat spleen lymphocytes, days 10 to 12 after one i.p. immunization; hCG-tetramer double-staining; one value per rat (nos. 1-3)", "protocol": "Six eight-week-old rats were used and were treated according to the ethical guidelines of our institutions. Rats (nos. 1, 2, and 3) were immunized intraperitoneally on day 0 with 100 μg C-Terminal Peptide (CTP), which comprises amino acid position 109-145 of hCG, coupled with 300 μg KLH, in Complete Freunds Adjuvant (CFA). The accession number of hCG is p01233, the Swiss prot. entry name is CGHB_HUMAN.\nControl rats (nos. 4, 5, and 6) were immunized with KLH in CFA. On days 10 to 12, the animals were sacrificed and spleens were harvested. All animal experiments were performed with permission from the local ethical committee (DEC).\nCell suspensions of splenocytes were obtained by mechanical disruption of the spleens. Lymphocytes were collected using a Ficoll gradient. The resulting single-cell suspensions were stained with hCG-tetramers at optimal dilution. Staining was conducted at 4° C. in two steps. First, cells were stained with the PE-labeled tetramer of hCG for one hour, using the empirically determined optimal concentration. Cells were then washed three times with FACS buffer. Next, cells were stained with the APC-labeled tetramer of hCG and washed again. […]\nLymphocytes were stained with hCG-tetramers. […] Only […] detected as a responder to the immunization based on specific B-cell responses."}, "GnRH": {"tested_on": "GnRH", "conditions": "cited from earlier work; for biological effect: peptide conjugated to a carrier protein (Meloen et al., 1994; Oonk et al., 1998); for immunogenicity: peptide conjugated to a carrier protein, resulting in GnRH-neutralizing antibodies (Meloen et al., 1994; Oonk et al., 1998)"}, "GnRH-specific B cells [2]": {"tested_on": "GnRH-specific B cells", "test": "Inhibition of GnRH-tetramer staining of specific B cells by pre-incubation with unlabeled GnRH", "format": "cell-based, mice", "protocol": "FIG. 3A: Unlabeled GnRH or Gastrin is able to inhibit the peptide-tetrameric molecule staining of the specific B cells. […] Splenocytes were pre-incubated with unlabeled GnRH or Gastrin, followed by incubation with labeled tetramers and anti-CD19 and anti-CD3 antibodies. Three doses of unlabeled antigens were used: 2 mM, 20 μM and 0.2 μM.\nLymphocytes were preincubated with unlabeled peptide followed by incubation with labeled tetramers, CD19 and CD3e antibodies."}}, "note": "“And” between values parts separate entries of the source, which are not always exact repeats. Equal values may be shown once. Non-standard residues stand in square brackets, D forms with d. No end group written: not given here. *: point of attachment. Biotin = O=C1N[C@H]2[C@H](CS[C@H]2CCCCC(=O)*)N1; pGlu = O=C1CC[C@@H](C(=O)O)N1", "data": [{"substance": "N-term: tetramer of N-biotinylated GnRH with PE-labeled neutravidin or APC-labeled streptavidin (Biotin-QHWSYGLRPG; ends and bridges not checked; also: tetramer with PE-labeled neutravidin or APC-labeled streptavidin; UniProt P01148 24-33, looked up)", "values": [{"measurement": "detection of specific B cells by the tetramer", "setting": "GnRH-specific B cells [1]", "result": "Only the C-term peptide was able to detect the specific cells"}]}, {"substance": "CTP-KLH/CFA: C-Terminal Peptide, amino acid position 109-145 of hCG, coupled with KLH, in Complete Freunds Adjuvant (TCDDPRFQDSSSSKAPPPSLPSPSRLPGPSDTPILPQ; also: coupled with KLH, in Complete Freunds Adjuvant; UniProt P0DN86 129-165, looked up, fragment)", "values": [{"measurement": "Pos. B cells per 1 × 10^6 cells in Facs", "setting": "hCG-specific B cells", "result": "61 per 1 × 10^6 cells and 47 per 1 × 10^6 cells and 136 per 1 × 10^6 cells"}]}, {"substance": "pEHWSYGLRPGQHWSYGLRPGC ([pGlu]HWSYGLRPGQHWSYGLRPGC) [GnRH tandem]", "values": [{"measurement": "biological effect", "setting": "GnRH", "result": "full biological effect in all treated animals"}, {"measurement": "immunogenicity", "setting": "GnRH", "result": "highly immunogenic"}]}, {"substance": "C-term biotinylated GnRH tetrameric: C-biotinylated GnRH complexed with PE-labeled neutravidin or APC-labeled streptavidin (QHWSYGLRPG-biotin; ends and bridges not checked; also: tetramer with PE-labeled neutravidin or APC-labeled streptavidin; UniProt P01148 24-33, looked up)", "values": [{"measurement": "detection of specific B cells by the tetramer", "setting": "GnRH-specific B cells [1]", "result": "able to detect the specific B cells"}]}, {"substance": "dimerized form of pEHWSYkLRPGQHWSYkLRPGC [TDK]", "values": [{"measurement": "biological effect", "setting": "GnRH", "result": "full biological effect in all treated animals"}, {"measurement": "immunogenicity", "setting": "GnRH", "result": "highly immunogenic"}]}, {"substance": "Unlabeled GnRH: Gonadotrophin-releasing hormone, a decapeptide, used unlabeled as competitor of tetramer staining (QHWSYGLRPG; ends and bridges not checked; UniProt P01148 24-33, looked up)", "values": [{"measurement": "inhibition of tetramer staining, dose dependence", "setting": "GnRH-specific B cells [2]; lymphocytes preincubated with unlabeled peptide, then labeled tetramers (FIG. 3A)", "result": "inhibited by inclusion of unlabeled peptide in a dose-dependent manner"}, {"measurement": "inhibition of peptide-tetramer staining of specific B cells", "setting": "GnRH-specific B cells [2]; splenocytes pre-incubated with unlabeled antigen, higher dose of 2 mM, 20 μM and 0.2 μM", "result": "nearly abolished"}]}, {"substance": "middle biotinylated peptides: tetramer of middle biotinylated GnRH with PE-labeled neutravidin or APC-labeled streptavidin (QHWSYGLRPG; ends and bridges not checked; also: middle biotinylated, tetramer with PE-labeled neutravidin or APC-labeled streptavidin; UniProt P01148 24-33, looked up)", "values": [{"measurement": "detection of specific B cells by the tetramer", "setting": "GnRH-specific B cells [1]", "result": "Only the C-term peptide was able to detect the specific cells"}]}]}
